In PMC3567921 (Clinical cancer research : an official journal of the …, 2012):

Target: T1, Axl (Homo sapiens, UniProt P30530)
T1 sequence (P30530 26-894): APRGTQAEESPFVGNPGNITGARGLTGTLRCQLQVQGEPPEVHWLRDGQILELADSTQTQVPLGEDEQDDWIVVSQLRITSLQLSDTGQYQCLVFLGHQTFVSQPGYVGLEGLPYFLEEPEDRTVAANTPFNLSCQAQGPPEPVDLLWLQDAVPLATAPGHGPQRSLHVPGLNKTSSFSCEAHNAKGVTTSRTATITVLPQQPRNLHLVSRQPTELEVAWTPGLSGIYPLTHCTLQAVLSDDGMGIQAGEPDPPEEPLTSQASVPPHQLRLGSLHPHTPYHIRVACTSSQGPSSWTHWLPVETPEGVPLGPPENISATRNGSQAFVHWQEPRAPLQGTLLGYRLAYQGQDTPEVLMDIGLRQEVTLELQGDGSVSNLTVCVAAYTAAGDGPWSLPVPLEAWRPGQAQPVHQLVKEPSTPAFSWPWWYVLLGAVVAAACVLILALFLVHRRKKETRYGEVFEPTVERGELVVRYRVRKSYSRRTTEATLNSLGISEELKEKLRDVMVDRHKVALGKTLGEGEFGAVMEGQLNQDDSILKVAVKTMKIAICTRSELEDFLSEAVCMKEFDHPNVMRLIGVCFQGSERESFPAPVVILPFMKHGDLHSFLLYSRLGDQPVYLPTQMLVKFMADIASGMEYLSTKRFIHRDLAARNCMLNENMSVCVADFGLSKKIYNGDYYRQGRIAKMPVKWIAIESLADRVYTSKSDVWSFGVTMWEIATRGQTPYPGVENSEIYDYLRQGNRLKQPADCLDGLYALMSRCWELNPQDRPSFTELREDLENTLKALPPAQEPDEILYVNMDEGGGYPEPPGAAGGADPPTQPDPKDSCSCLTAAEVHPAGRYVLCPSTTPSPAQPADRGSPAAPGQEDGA
Assay: anti-FLAG immunoprecipitation, phosphotyrosine Western blot densitometry
Format: cell-based

EC50: < 100 nM
SMILES: Cc1c[nH]c2nc(Nc3ccc(N4CCN(C)CC4)c(F)c3)nc(-c3cccc(CC#N)c3)c12 [SGI-7079]
